From patent publication US12139481B2, “Compositions comprising macrocycle derivatives incorporating bridged macrocycles and methods of producing and using same” (Southwestern Oklahoma State University, priority 2015, dated 2024) come the findings set out here.

Where “and” joins values, the source holds several entries; their conditions need not be identical. Equal entries are not always repeated. Where two headings read alike, the source gives them in different places.

Assay [1] concerns L. donovani promastigotes. In words: Antileishmanial Alamar Blue assay on promastigotes. The assay is classed as cell-based, Leishmania donovani. The conditions noted are these: for X more potent than Pentamidine: L. donovani, ratio of molar IC50 to Pentamidine. The method, boiled down:
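L. donovani promastigotes in RPMI 1640 with 10% FCS, from 3-day culture, were set at 5×10^5/mL and exposed to compound (50-3.1 μg/mL) for 48 hours at 26° C. Growth read by Alamar Blue fluorescence (ex 544/em 590 nm); IC50 from percent growth versus concentration.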
On the technique in general: Alamar Blue is a resazurin reagent that responds to reducing activity.

Assay [2] concerns Cryptococcus neoformans ATCC 90113. In words: Antimicrobial microdilution assay against Cryptococcus neoformans (modified CLSI/NCCLS, optical density). The assay is classed as cell-based. As to conditions: for X more potent than Amphotericin B: C. neoformans, ratio of molar IC50 to Amphotericin B; for C. neoformans IC50 / IC50: in vitro, C. neoformans ATCC 90113; for IC50: read-out: C. neoformans IC50 (mol/L). Put shortly: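 Broth microdilution (modified CLSI) in RPMI pH 6.0, samples serially diluted in 20% DMSO/saline and tested in duplicate, growth followed by OD630 before and after incubation. MFC is the lowest concentration giving no growth when 5 μL from clear wells is plated on agar.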

In assay [3] the test system is C. krusei ATCC 6258. The assay can be described thus: Antifungal broth dilution assay against C. krusei (modified CLSI). The assay is classed as cell-based, Candida krusei. As to conditions: for X more potent than Amphotericin B: C. krusei, ratio of molar IC50 to amphotericin B; for C. krusei IC50 / IC50: in vitro; for IC50: read-out: C. krusei IC50 (mol/L). Put shortly:
(§1)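 Modified CLSI broth microdilution with OD monitoring before and after incubation at 35 °C: Candida in RPMI 1640/MOPS pH 6.0, 1.5×10^3 CFU/ml, 46-50 h; Staphylococcus in cation-adjusted Mueller-Hinton pH 7.3, 5.0×10^5 CFU/ml, 16-20 h. IC50 from curve fit; MIC is the lowest concentration with no growth; MFC/MBC from subculture.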
Background: In broth dilution the organism is exposed to a series of concentrations in liquid medium.

The subject of assay [4] is methicillin-resistant S. aureus ATCC 33591 (MRS). In words: Antibacterial broth dilution assay against MRSA (modified CLSI). The assay is classed as cell-based, Staphylococcus aureus. The conditions noted are these: for MRSa IC50 / IC50: in vitro; for IC50: converted with molecular weight; for X more potent than ciprofloxacen: molar IC50 ratio versus ciprofloxacen. The method, boiled down: as §1

Setting [5] is: promastigotes, 48 hours, Alamar Blue.
The mark [6] stands for this setting: promastigotes, 48 hours, Alamar Blue, read-out: L. donavani IC50.

`CC(=O)[O-].F[P-](F)(F)(F)(F)F.[Ni+2].c1ccc(CN2CCCN3CCCN(CCCN(Cc4ccccc4)CC3)CC2)cc1` [DJD22, [Ni(Bn2PBCyclam)(OAc)]PF6]: the “X more potent than Pentamidine” value in assay [1] is 0.28. In assay [1] (setting [5]), the “L. donovani IC50” value stood at 13.10 µg/mL. Besides, the IC50 in assay [1] (setting [6]) stood at 19.2 µM. In addition, in assay [2], the “X more potent than Amphotericin B” value worked out at 0.03, the “C. neoformans IC50” value stood at 5.240 µg/mL and the IC50 is 7.67 µM. Also, in assay [3], the “X more potent than Amphotericin B” value was 0.19, the “C. krusei IC50” value came out at 5.250 µg/mL and the IC50 was determined as 7.68 µM. For the same compound, in assay [4], the “MRSa IC50” value came to 4.620 µg/mL, the IC50 was 6.76 µM and the “X more potent than ciprofloxacen” value stood at 0.03.
For the compound `[Cl][Mn-2]([Cl])([Cl])[Cl].[Mn+2].c1ccc(CN2CCCN3CCCN(CCCN(Cc4ccccc4)CC3)CC2)cc1` [BME08, [Mn(Bn2PBCyclam)][MnCl4]], in assay [1], the “X more potent than Pentamidine” value is 2 and 2.01. The “L. donovani IC50” value in assay [1] (setting [5]) is 1.78 µg/mL. For the same compound, the IC50 in assay [1] (setting [6]) amounted to 2.65 µM. The IC50 in assay [1] (read-out: IC50 against L. donovani) was 2.65 µM. For the same compound, in assay [2], the “X more potent than Amphotericin B” value came out at 0.13, the “C. neoformans IC50” value came to 1.203 µg/mL and the IC50 was determined as 1.79 µM. Moreover, in assay [3], the “X more potent than Amphotericin B” value is listed as 0.19, the “C. krusei IC50” value stood at 5.270 µg/mL and the IC50 turned out to be 7.84 µM. Moreover, in assay [4], the “MRSa IC50” value came out at 0.800 µg/mL, the IC50 came out at 1.19 µM and the “X more potent than ciprofloxacen” value is 0.18.
With `CN1CCCN2CCN(CCCN(Cc3cccc(CN4CCCN5CCN(C)CCCN(CC5)CC4)c3)CC2)CC1.Cl.Cl.Cl.Cl.Cl.Cl.Cl.Cl` [TJS04, m-CB-cyclams HCl salt], the “X more potent than Pentamidine” value in assay [1] is reported as 0.50. Besides, the “L. donovani IC50” value in assay [1] (setting [5]) came to 10.37 µg/mL. In addition, in assay [1] (promastigotes, 48 hours, Alamar Blue, HCl salt, read-out: L. donavani IC50), the IC50 is 10.7 µM. Moreover, in assay [2], the “X more potent than Amphotericin B” value is recorded as 0.61 and the “C. neoformans IC50” value amounted to 0.380 µg/mL. In assay [2] (HCl salt), the IC50 worked out at 0.39 µM. In assay [4], the “MRSa IC50” value stood at 7.050 µg/mL and the “X more potent than ciprofloxacen” value was 0.03. Further, the IC50 in assay [4] (HCl salt) was 7.24 µM.
In the case of `c1ccc(CN2CCN3CCCN(CC2)CCN(Cc2ccccc2)CC3)cc1` [AW009, Bn2PBCyclen], the “X more potent than Pentamidine” value in assay [1] was 0.10. Also, the “L. donovani IC50” value in assay [1] (setting [5]) is 21.40 µg/mL. For the same compound, the IC50 in assay [1] (setting [6]) was 54.5 µM. In assay [2], the “X more potent than Amphotericin B” value was 0.01, the “C. neoformans IC50” value was found to be 6.740 µg/mL and the IC50 came to 17.2 µM. In addition, in assay [3], the “X more potent than Amphotericin B” value is 0.10, the “C. krusei IC50” value amounted to 6.170 µg/mL and the IC50 was found to be 15.7 µM. Further, in assay [4], the “MRSa IC50” value is 1.050 µg/mL, the IC50 was found to be 2.68 µM and the “X more potent than ciprofloxacen” value worked out at 0.08.
For `c1cc(CN2CCCN3CCCN(CCCNCC3)CC2)ccc1CN1CCCN2CCCN(CCCNCC2)CC1` [SLK10, p-H2PBCyclams], the “X more potent than Pentamidine” value in assay [1] stood at 0.20. Also, the “L. donovani IC50” value in assay [1] (setting [5]) was 15.50 µg/mL. Besides, the IC50 in assay [1] (setting [6]) is 26.6 µM. For the same compound, in assay [2], the “X more potent than Amphotericin B” value worked out at 0.01, the “C. neoformans IC50” value came to 15.010 µg/mL and the IC50 turned out to be 25.8 µM. In assay [4], the “MRSa IC50” value was 2.500 µg/mL, the IC50 was 4.29 µM and the “X more potent than ciprofloxacen” value was determined as 0.05.
